ChEMBL document CHEMBL4507289, “Data for DCP probe GSM1” (2021)

Legend:
[1] = target: Calcium/calmodulin-dependent protein kinase type II subunit delta (Homo sapiens) (UniProt Q13557); conditions: Compound concentration 1000.0 nM
[2] = target: Ribosomal protein S6 kinase alpha-1 (Homo sapiens) (UniProt Q15418); conditions: Compound concentration 1000.0 nM
[3] = target: 5-hydroxytryptamine receptor 2B (Homo sapiens) (UniProt P41595); conditions: Compound concentration 10.0 uM
[4] = system: Epidermal growth factor receptor (Homo sapiens), P00533 [UNDEFINED MUTATION]; conditions: Compound concentration 1000.0 nM
[5] = target: Serine/threonine-protein kinase PAK 3 (Homo sapiens) (UniProt O75914); conditions: Compound concentration 1000.0 nM
Chain of Serine/threonine-protein kinase PAK 3 (Homo sapiens) (O75914 whole entry, looked up): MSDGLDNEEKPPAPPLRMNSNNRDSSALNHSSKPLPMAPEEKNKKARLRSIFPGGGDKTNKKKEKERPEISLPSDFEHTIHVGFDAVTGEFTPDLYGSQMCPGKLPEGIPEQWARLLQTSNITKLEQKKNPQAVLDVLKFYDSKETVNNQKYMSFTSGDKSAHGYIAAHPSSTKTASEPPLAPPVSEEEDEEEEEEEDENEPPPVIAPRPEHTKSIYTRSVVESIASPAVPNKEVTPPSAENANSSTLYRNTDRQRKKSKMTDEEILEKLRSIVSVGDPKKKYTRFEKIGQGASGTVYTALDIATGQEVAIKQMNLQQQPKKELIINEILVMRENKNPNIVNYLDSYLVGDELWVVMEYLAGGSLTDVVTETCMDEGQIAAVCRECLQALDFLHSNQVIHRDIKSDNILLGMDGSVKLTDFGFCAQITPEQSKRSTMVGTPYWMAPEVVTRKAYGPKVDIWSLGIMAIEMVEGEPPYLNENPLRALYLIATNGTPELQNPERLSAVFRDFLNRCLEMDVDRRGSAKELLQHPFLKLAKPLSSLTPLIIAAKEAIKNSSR

[6] = target: Casein kinase II subunit alpha' (Homo sapiens) (UniProt P19784); conditions: Compound concentration 1000.0 nM
Chain of Casein kinase II subunit alpha' (Homo sapiens) (P19784 whole entry, looked up): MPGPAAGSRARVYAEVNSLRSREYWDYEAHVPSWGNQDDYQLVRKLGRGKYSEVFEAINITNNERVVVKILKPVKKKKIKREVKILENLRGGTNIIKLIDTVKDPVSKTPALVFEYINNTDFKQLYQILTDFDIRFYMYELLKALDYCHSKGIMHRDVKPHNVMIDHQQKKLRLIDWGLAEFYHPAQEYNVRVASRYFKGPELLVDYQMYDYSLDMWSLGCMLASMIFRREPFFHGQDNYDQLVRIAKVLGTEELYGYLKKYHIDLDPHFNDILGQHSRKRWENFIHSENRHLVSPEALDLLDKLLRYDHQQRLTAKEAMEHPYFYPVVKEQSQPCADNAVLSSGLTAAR

[7] = target: Ribosomal protein S6 kinase alpha-2 (Homo sapiens) (UniProt Q15349); conditions: Compound concentration 1000.0 nM
[8] = target: Casein kinase I isoform alpha-like (Homo sapiens) (UniProt Q8N752); conditions: Compound concentration 1000.0 nM
[9] = target: Cyclin-dependent kinase 19 (Homo sapiens) (UniProt Q9BWU1); conditions: Compound concentration 1000.0 nM
[10] = target: Serine/threonine-protein kinase ULK1 (Homo sapiens) (UniProt O75385); conditions: Compound concentration 1000.0 nM
[11] = target: BMP-2-inducible protein kinase (Homo sapiens) (UniProt Q9NSY1); conditions: Compound concentration 1000.0 nM
Chain of BMP-2-inducible protein kinase (Homo sapiens) (Q9NSY1 whole entry, looked up): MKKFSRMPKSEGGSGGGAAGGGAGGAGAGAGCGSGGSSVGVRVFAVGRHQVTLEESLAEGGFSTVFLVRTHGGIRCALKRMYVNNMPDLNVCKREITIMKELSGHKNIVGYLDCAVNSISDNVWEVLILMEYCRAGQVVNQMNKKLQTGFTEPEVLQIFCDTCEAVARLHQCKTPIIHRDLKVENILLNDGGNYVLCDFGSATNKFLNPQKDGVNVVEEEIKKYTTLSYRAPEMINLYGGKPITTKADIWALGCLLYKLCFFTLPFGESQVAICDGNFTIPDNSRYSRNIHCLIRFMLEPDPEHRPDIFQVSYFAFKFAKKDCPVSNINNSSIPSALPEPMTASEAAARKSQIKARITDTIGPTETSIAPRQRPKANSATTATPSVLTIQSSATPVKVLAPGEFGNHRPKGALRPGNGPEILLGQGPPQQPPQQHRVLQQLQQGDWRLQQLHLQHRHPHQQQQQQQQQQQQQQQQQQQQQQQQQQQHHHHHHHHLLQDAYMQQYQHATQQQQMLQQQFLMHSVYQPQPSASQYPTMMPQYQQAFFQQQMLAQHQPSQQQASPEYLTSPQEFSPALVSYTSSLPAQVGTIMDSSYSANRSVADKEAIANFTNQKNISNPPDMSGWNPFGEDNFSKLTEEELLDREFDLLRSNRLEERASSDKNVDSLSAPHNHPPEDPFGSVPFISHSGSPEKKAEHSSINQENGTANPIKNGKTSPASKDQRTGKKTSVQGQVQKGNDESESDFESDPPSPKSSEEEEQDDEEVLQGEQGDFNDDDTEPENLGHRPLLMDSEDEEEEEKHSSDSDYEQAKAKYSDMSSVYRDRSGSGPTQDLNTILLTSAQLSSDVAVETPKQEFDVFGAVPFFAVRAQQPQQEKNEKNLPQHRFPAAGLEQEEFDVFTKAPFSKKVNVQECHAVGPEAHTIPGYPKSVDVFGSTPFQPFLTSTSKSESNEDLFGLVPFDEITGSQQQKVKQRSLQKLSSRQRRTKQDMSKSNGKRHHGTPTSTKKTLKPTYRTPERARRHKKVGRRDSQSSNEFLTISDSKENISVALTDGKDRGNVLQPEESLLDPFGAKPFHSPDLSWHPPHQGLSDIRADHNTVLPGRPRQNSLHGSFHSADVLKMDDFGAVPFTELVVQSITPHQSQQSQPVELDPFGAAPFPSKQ

[12] = target: Aurora kinase A (Homo sapiens) (UniProt O14965); conditions: Compound concentration 1000.0 nM
[13] = target: Serine/threonine-protein kinase B-raf (Homo sapiens) (UniProt P15056); conditions: Compound concentration 1000.0 nM
[14] = target: Casein kinase I isoform alpha (Homo sapiens) (UniProt P48729); conditions: Compound concentration 1000.0 nM
[15] = target: Protein kinase C delta type (Homo sapiens) (UniProt Q05655); conditions: Compound concentration 1000.0 nM
[16] = target: Serine/threonine-protein kinase LATS1 (Homo sapiens) (UniProt O95835); conditions: Compound concentration 1000.0 nM
[17] = target: Tyrosine-protein kinase FRK (Homo sapiens) (UniProt P42685); conditions: Compound concentration 1000.0 nM
[18] = target: Serine/threonine-protein kinase RIO3 (Homo sapiens) (UniProt O14730); conditions: Compound concentration 1000.0 nM
[19] = system: Receptor-type tyrosine-protein kinase FLT3 (Homo sapiens), P36888 [UNDEFINED MUTATION]; conditions: Compound concentration 1000.0 nM
[20] = target: Casein kinase I isoform delta (Homo sapiens) (UniProt P48730); conditions: Compound concentration 1000.0 nM
[21] = target: Phosphatidylinositol 4,5-bisphosphate 3-kinase catalytic subunit gamma isoform (Homo sapiens) (UniProt P48736); conditions: Compound concentration 1000.0 nM
[22] = target: Ephrin type-A receptor 4 (Homo sapiens) (UniProt P54764); conditions: Compound concentration 1000.0 nM
[23] = target: Mitogen-activated protein kinase 6 (Homo sapiens) (UniProt Q16659); conditions: Compound concentration 1000.0 nM
Chain of Mitogen-activated protein kinase 6 (Homo sapiens) (Q16659 whole entry): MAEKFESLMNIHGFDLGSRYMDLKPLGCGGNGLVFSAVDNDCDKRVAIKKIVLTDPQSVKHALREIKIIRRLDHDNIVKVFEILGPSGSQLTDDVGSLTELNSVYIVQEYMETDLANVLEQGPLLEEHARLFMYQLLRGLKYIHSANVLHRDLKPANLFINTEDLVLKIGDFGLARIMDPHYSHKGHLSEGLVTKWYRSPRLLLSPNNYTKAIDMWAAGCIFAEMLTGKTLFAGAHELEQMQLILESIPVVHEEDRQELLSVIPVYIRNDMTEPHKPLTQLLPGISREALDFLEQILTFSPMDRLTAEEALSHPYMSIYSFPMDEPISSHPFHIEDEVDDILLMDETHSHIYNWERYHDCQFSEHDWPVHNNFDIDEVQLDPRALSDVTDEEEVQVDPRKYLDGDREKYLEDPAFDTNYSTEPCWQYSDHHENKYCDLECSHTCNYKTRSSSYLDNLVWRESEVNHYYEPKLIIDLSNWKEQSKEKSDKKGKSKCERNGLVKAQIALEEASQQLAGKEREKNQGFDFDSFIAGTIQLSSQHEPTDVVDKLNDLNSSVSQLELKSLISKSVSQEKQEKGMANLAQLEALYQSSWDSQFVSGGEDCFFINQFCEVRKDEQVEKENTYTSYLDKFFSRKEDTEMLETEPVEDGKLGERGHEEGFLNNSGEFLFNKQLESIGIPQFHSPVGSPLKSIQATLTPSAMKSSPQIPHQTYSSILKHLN

[24] = target: Serine/threonine-protein kinase OSR1 (Homo sapiens) (UniProt O95747); conditions: Compound concentration 1000.0 nM
[25] = target: Proto-oncogene tyrosine-protein kinase Src (Homo sapiens) (UniProt P12931); conditions: Compound concentration 1000.0 nM
[26] = target: Mitogen-activated protein kinase kinase kinase 4 (Homo sapiens) (UniProt Q9Y6R4); conditions: Compound concentration 1000.0 nM
[27] = target: Serine/threonine-protein kinase pim-3 (Homo sapiens) (UniProt Q86V86); conditions: Compound concentration 1000.0 nM
[28] = target: Dual specificity protein kinase TTK (Homo sapiens) (UniProt P33981); conditions: Compound concentration 1000.0 nM
[29] = target: Cyclin-dependent kinase 13 (Homo sapiens) (UniProt Q14004); conditions: Compound concentration 1000.0 nM
[30] = target: Rho-associated protein kinase 1 (Homo sapiens) (UniProt Q13464); conditions: Compound concentration 1000.0 nM
[31] = target: Mitogen-activated protein kinase 10 (Homo sapiens) (UniProt P53779); conditions: Compound concentration 1000.0 nM
Chain of Mitogen-activated protein kinase 10 (Homo sapiens) (P53779 whole entry): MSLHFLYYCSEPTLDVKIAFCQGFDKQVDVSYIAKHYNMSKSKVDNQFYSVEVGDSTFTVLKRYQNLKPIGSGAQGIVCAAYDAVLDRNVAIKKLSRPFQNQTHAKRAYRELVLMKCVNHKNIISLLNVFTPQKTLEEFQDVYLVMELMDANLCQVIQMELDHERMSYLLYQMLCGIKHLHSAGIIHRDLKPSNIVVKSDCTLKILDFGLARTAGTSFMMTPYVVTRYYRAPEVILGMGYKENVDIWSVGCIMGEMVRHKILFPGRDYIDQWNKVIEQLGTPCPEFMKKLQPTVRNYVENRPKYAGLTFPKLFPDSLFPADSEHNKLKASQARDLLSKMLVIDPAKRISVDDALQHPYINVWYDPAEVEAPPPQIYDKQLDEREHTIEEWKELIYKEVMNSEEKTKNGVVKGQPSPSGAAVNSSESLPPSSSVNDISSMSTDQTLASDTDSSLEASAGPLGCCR

[32] = target: BDNF/NT-3 growth factors receptor (Homo sapiens) (UniProt Q16620); conditions: Compound concentration 1000.0 nM
Chain of BDNF/NT-3 growth factors receptor (Homo sapiens) (Q16620 32-822 limits assumed): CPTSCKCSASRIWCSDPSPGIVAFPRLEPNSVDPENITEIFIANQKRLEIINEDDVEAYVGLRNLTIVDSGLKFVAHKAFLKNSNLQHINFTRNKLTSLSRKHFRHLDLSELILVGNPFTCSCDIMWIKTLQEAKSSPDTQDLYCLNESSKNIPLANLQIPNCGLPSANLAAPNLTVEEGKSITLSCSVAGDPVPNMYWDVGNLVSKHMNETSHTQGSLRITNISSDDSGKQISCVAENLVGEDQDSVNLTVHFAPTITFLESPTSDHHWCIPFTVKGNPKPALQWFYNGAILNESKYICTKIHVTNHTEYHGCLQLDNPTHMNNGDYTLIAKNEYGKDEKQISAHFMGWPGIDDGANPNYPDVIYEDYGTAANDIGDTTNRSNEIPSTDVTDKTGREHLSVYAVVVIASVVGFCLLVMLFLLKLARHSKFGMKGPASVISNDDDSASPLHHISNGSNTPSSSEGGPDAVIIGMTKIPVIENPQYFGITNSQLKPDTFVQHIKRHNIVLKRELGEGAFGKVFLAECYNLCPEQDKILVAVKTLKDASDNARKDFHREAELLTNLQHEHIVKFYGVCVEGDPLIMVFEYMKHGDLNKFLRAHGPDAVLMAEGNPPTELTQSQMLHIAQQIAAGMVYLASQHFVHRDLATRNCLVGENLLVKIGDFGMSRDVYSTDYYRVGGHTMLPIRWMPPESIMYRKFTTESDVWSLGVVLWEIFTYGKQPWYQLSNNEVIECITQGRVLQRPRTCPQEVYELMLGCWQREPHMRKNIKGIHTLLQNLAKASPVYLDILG

[33] = target: Serine/threonine-protein kinase tousled-like 1 (Homo sapiens) (UniProt Q9UKI8); conditions: Compound concentration 1000.0 nM
[34] = target: Epidermal growth factor receptor (Homo sapiens) (UniProt P00533); conditions: Compound concentration 1000.0 nM
[35] = target: 5-hydroxytryptamine receptor 6 (Homo sapiens) (UniProt P50406); conditions: Compound concentration 10.0 uM
[36] = target: Myosin-IIIa (Homo sapiens) (UniProt Q8NEV4); conditions: Compound concentration 1000.0 nM
[37] = target: 5-hydroxytryptamine receptor 2A (Homo sapiens) (UniProt P28223); conditions: Compound concentration 10.0 uM
[38] = target: Tyrosine-protein kinase Fgr (Homo sapiens) (UniProt P09769); conditions: Compound concentration 1000.0 nM
Chain of Tyrosine-protein kinase Fgr (Homo sapiens) (P09769 2-529 limits assumed): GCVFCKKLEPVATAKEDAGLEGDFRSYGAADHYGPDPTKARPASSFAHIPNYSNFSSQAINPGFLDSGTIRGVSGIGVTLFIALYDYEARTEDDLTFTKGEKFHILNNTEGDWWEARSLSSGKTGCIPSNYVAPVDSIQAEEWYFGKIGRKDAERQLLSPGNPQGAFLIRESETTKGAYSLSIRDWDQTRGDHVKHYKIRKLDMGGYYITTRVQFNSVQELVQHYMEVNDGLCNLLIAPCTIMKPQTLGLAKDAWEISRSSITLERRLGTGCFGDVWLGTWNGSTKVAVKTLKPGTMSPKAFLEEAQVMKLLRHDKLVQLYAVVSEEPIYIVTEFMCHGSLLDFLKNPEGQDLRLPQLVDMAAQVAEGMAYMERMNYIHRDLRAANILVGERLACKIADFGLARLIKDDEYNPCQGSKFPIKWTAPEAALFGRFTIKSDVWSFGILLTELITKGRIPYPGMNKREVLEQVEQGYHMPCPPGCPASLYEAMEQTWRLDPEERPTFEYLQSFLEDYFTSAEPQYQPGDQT

[39] = system: Epidermal growth factor receptor (Homo sapiens), P00533 [G719C]; conditions: Compound concentration 1000.0 nM
[40] = target: High affinity nerve growth factor receptor (Homo sapiens) (UniProt P04629); conditions: Compound concentration 1000.0 nM
[41] = system: Tyrosine-protein kinase ABL1 (Homo sapiens), P00519 [F317I]; conditions: Compound concentration 1000.0 nM
[42] = system: Proto-oncogene tyrosine-protein kinase receptor Ret (Homo sapiens), P07949 [M918T]; conditions: Compound concentration 1000.0 nM
[43] = target: Mitogen-activated protein kinase 15 (Homo sapiens) (UniProt Q8TD08); conditions: Compound concentration 1000.0 nM
[44] = target: Bone morphogenetic protein receptor type-1B (Homo sapiens) (UniProt O00238); conditions: Compound concentration 1000.0 nM
[45] = target: Casein kinase I isoform gamma-1 (Homo sapiens) (UniProt Q9HCP0); conditions: Compound concentration 1000.0 nM
Chain of Casein kinase I isoform gamma-1 (Homo sapiens) (Q9HCP0 whole entry, looked up, canonical isoform): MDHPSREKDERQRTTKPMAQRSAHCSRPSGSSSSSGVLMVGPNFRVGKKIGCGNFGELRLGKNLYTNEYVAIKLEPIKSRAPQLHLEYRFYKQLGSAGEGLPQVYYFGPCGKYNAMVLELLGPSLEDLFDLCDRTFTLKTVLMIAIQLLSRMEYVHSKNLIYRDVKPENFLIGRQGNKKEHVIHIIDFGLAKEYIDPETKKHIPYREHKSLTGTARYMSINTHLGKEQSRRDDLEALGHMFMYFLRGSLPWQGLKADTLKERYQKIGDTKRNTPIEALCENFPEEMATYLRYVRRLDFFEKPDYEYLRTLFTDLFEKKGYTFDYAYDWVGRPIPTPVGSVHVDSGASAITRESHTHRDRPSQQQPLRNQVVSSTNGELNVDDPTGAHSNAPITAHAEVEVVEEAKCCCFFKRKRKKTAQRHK

[46] = target: Cyclin-dependent kinase 5 (Homo sapiens) (UniProt Q00535); conditions: Compound concentration 1000.0 nM

COc1cc(-c2cn([C@H]3CCc4c(F)cccc4N(CC(F)(F)F)C3=O)nn2)ccc1-n1cnc(C)c1
inactive: residual activity [1] 100% | residual activity [2] 100% | inhibition [3] 5.58% | residual activity [5] 100% | residual activity [6] 100% | residual activity [7] 100% | residual activity [8] 100% | residual activity [9] 97% | residual activity [10] 100% | residual activity [11] 100% | residual activity [12] 100% | residual activity [13] 100% | residual activity [14] 100% | residual activity [15] 100% | residual activity [16] 93% | residual activity [17] 100% | residual activity [18] 100% | residual activity [19] 82% | residual activity [20] 100% | residual activity [21] 84% | residual activity [22] 100% | residual activity [23] 100% | residual activity [24] 100% | residual activity [25] 93% | residual activity [26] 94% | residual activity [27] 90% | residual activity [28] 100% | residual activity [29] 99% | residual activity [30] 100% | residual activity [31] 72% | residual activity [32] 92% | residual activity [33] 100% | residual activity [34] 100% | inhibition [35] -4.64% | residual activity [36] 100% | inhibition [37] 11.5% | residual activity [38] 100% | residual activity [39] 94% | residual activity [40] 81% | residual activity [41] 100% | residual activity [42] 100% | residual activity [43] 78% | residual activity [44] 100% | residual activity [45] 86% | residual activity [46] 100%
active: residual activity [4] 0%

COc1cc(-c2cn([C@H]3CCc4ccccc4N(CC(F)(F)F)C3=O)nn2)ccc1-n1ccc(C)n1
inactive: residual activity [1] 100% | residual activity [2] 95% | inhibition [3] 6.39% | residual activity [4] 100% | residual activity [5] 100% | residual activity [6] 84% | residual activity [7] 99% | residual activity [8] 100% | residual activity [9] 72% | residual activity [10] 76% | residual activity [11] 100% | residual activity [12] 58% | residual activity [13] 100% | residual activity [14] 98% | residual activity [15] 98% | residual activity [16] 71% | residual activity [17] 100% | residual activity [18] 100% | residual activity [19] 80% | residual activity [20] 100% | residual activity [21] 67% | residual activity [22] 92% | residual activity [23] 100% | residual activity [24] 91% | residual activity [25] 100% | residual activity [26] 85% | residual activity [27] 100% | residual activity [28] 100% | residual activity [29] 100% | residual activity [30] 100% | residual activity [31] 61% | residual activity [32] 93% | residual activity [33] 84% | residual activity [34] 100% | inhibition [35] -1.39% | residual activity [36] 100% | inhibition [37] 5.83% | residual activity [38] 90% | residual activity [39] 100% | residual activity [40] 63% | residual activity [41] 67% | residual activity [42] 100% | residual activity [43] 100% | residual activity [44] 100% | residual activity [45] 77% | residual activity [46] 100%
